Broadly, the IC50 is the concentration that inhibits the measured activity by half. High values mean weaker potency, low ones greater potency.

The experiment deals with LC3B (Homo sapiens (Human), UniProt Q9GZQ8). Put plainly: Fluorescence polarization assay, GST-LC3B with FITC-labeled peptide. (Fluorescence polarisation rises when a labelled molecule tumbles more slowly, as on binding a larger partner.)
Procedure: Then the resulting mixture was incubated at 25° C. in the dark.
In turn, `CN(C)C=C1C(=O)CC(c2ccccc2)CC1=O` (centres unmarked) [Compound 1, 2-((Dimethylamino)Methylene)-5-Phenyl-Cyclohexane-1,3-Dione] showed an IC50 of 3 to 15 µM.

`O=C1CC(c2ccccc2)CC(=O)C1=CNc1ccccc1` (centres unmarked) [Compound 11, 5-Phenyl-2-((Phenylamino)Methylene)-Cyclohexane-1,3-Dione]: the IC50 was 15 to 100 µM.

On to `Cc1n[nH]c(NC=C2C(=O)CC(C)(C)CC2=O)c1-c1ccccc1` [Compound 17], for which the half-maximal inhibitory concentration (IC50) was in the range of 100 to 1000 µM.

Consider `CN(C)C=C1C(=O)CC2(CC2)CC1=O` [Compound 22], for which the IC50 fell in the range of 100 to 1000 µM.

Compound `CNC(=O)NC=C1C(=O)CCCC1=O` [Compound 25] showed a half-inhibitory concentration (IC50) of 100 to 1000 µM.

With `Cc1ccc(S(=O)(=O)NNC=C2C(=O)CCCC2=O)cc1` [Compound 26], the IC50 fell in the range of 100 to 1000 µM.

With `CC1(C)CC(=O)C(=CNCCN2CCN(C(=O)Cc3ccc(F)cc3)CC2)C(=O)C1` [Compound 46], the IC50 lay within 100 to 1000 µM.

In turn, `O=c1c(=CNc2ccccc2)c(=O)c2cccc3cccc1c32` [Compound 61] displayed an IC50 of 15 to 100 µM.

The record behind these values is patent publication US11529321B2, “Use of aminomethylenecyclohexane-1,3-dione compound” (WIGEN BIOMEDICINE TECHNOLOGY (SHANGHAI) CO., LTD., priority 2017, dated 2022).
